The test system of one test is HeLa. The test can be described thus: MTS proliferation assay. Type of test: cell-based, human. To be noted: 72 h. In outline:
(§1)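 Cells exposed 72 h under culture conditions to compound at 10, 3, 1 and 0.3 μM final, added in medium with max 5% DMSO. MTS reagent then added for a further 3 h and absorbance read at 492 nm.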
For orientation: Tetrazolium assays rely on reduction of a dye to a coloured formazan, in cell work by metabolically active cells.

In a further test the test system is Jurkat. The test can be described thus: MTS proliferation assay. Type of test: cell-based, human. To be noted: 72 h. The method in brief:
as §1

In a further test the test system is MRC5. As to the kind of experiment: MTS proliferation assay. Type of test: cell-based. To be noted: MRC5, 72 h. In outline: as §1
The nature of test [1]: Hoechst 33342 nuclear staining. On Hoechst 33342 nuclear staining score, PBLs: key: 0: no activity; 1: weak activity comprising less than 50% of the cells; 2: strong activity comprising more than 50% of the cells.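 On all read-outs here: apoptotic nuclei scored 0 none 1 weak under 50% of cells 2 strong over 50% of cells.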 Type of test: cell-based. To be noted: for Hoechst 33342 nuclear staining score, H460: H460 cells; for Hoechst 33342 nuclear staining score, HeLa: HeLa cells; for Hoechst 33342 nuclear staining score, Jily: Jily cells; for Hoechst 33342 nuclear staining score, Jurkat: Jurkat cells; for Hoechst 33342 nuclear staining score, MRC5: MRC5 cells. In outline:
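Cells were plated in 96 well tissue culture plates in 80 μl complete medium, with 3-5*10^3 cells per well for adherent lines and 8-10*10^3 for suspension lines. Adherent cells spread for 24 h before treatment, while suspension cells were treated right after seeding. Compounds were added in 20 μl complete medium containing max 5% DMSO.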

[2] abbreviates: conc 0.3 (final concentrations in μM), 24 h or 48 h incubation.
Where [3] appears, read: conc 1 (final concentrations in μM), 24 h or 48 h incubation.
Setting [4] is: conc 3 (final concentrations in μM), 24 h or 48 h incubation.
Setting [5] is: conc 10 (final concentrations in μM), 24 h or 48 h incubation.
[6] abbreviates: conc 0.1 (final concentrations in μM), 24 h or 48 h incubation.

This note sets out measurements from patent US7612064B2, “Sulfopyrroles” (Takeda Pharmaceutical Company Limited, priority 2003, dated 2009).

Bounds are passed on as bounds.

In the case of `COc1cc(-c2cc(-c3cncc(C(=O)O)c3)cn2S(=O)(=O)c2ccc(C)cc2)cc(OC)c1OC.N` [Example 66], the IC50 with HeLa was above 1000 nM. The compound further returned an IC50 in the test on Jurkat above 1000 nM. In the test with MRC5, this compound yielded an IC50 above 1000 nM. Moreover, in test [1] (conc 0.1), the “Hoechst 33342 nuclear staining score, H460” value is 0; the “Hoechst 33342 nuclear staining score, HeLa” value amounted to 0; the “Hoechst 33342 nuclear staining score, Jily” value stood at 0; the “Hoechst 33342 nuclear staining score, Jurkat” value came to 0. Also, in test [1] (conc 0.1), the “Hoechst 33342 nuclear staining score, MRC5” value is 0 and the “Hoechst 33342 nuclear staining score, PBLs” value is recorded as 0. In test [1] (conc 0.3), the “Hoechst 33342 nuclear staining score, H460” value was found to be 0; the “Hoechst 33342 nuclear staining score, HeLa” value is on record as 0; the “Hoechst 33342 nuclear staining score, Jily” value is 0; the “Hoechst 33342 nuclear staining score, Jurkat” value is 0. Moreover, in test [1] (conc 0.3), the “Hoechst 33342 nuclear staining score, MRC5” value stood at 0 and the “Hoechst 33342 nuclear staining score, PBLs” value is recorded as 0. Also, in test [1] (conc 1), the “Hoechst 33342 nuclear staining score, H460” value was determined as 0; the “Hoechst 33342 nuclear staining score, HeLa” value is recorded as 0; the “Hoechst 33342 nuclear staining score, Jily” value is 0; the “Hoechst 33342 nuclear staining score, Jurkat” value amounted to 0. In test [1] (conc 1), the “Hoechst 33342 nuclear staining score, MRC5” value stood at 0 and the “Hoechst 33342 nuclear staining score, PBLs” value was 0. Moreover, in test [1] (conc 3), the “Hoechst 33342 nuclear staining score, H460” value came to 0; the “Hoechst 33342 nuclear staining score, HeLa” value stood at 0; the “Hoechst 33342 nuclear staining score, Jily” value worked out at 0; the “Hoechst 33342 nuclear staining score, Jurkat” value came to 0. Also, in test [1] (conc 3), the “Hoechst 33342 nuclear staining score, MRC5” value is listed as 0 and the “Hoechst 33342 nuclear staining score, PBLs” value came to 0.

Regarding `Cc1ccc(S(=O)(=O)n2cc(CNc3ccc(N4CCOCC4)cc3N3CCOCC3)cc2-c2ccc3c(c2)OCO3)cc1` [Example 39], the IC50 in the test with HeLa, with Jurkat and with MRC5 was above 1000 nM in each case. For the same compound, the “Hoechst 33342 nuclear staining score, HeLa” value in test [1] (setting [2]), in test [1] (setting [3]), in test [1] (setting [4]) and in test [1] (setting [5]) was 0 in each case. Besides, the “Hoechst 33342 nuclear staining score, Jurkat” value in test [1] (setting [2]), in test [1] (setting [3]), in test [1] (setting [4]) and in test [1] (setting [5]) was 0 each time.

Take `COc1cc(-c2cc(-c3cccnc3)cn2S(=O)(=O)c2ccc(OC(F)(F)F)cc2)cc(OC)c1OC` [Example 77]: the IC50 in the test with HeLa was above 1000 nM. Moreover, the IC50 with Jurkat was above 1000 nM. In the test with MRC5, this compound yielded an IC50 above 1000 nM. In test [1] (conc 0.1), the “Hoechst 33342 nuclear staining score, H460” value amounted to 0; the “Hoechst 33342 nuclear staining score, HeLa” value came out at 0; the “Hoechst 33342 nuclear staining score, Jily” value is recorded as 0; the “Hoechst 33342 nuclear staining score, Jurkat” value was 0. Moreover, in test [1] (conc 0.1), the “Hoechst 33342 nuclear staining score, MRC5” value came to 0 and the “Hoechst 33342 nuclear staining score, PBLs” value came to 0. Besides, in test [1] (conc 0.3), the “Hoechst 33342 nuclear staining score, H460” value was determined as 0; the “Hoechst 33342 nuclear staining score, HeLa” value amounted to 0; the “Hoechst 33342 nuclear staining score, Jily” value was found to be 0; the “Hoechst 33342 nuclear staining score, Jurkat” value stood at 0. Further, in test [1] (conc 0.3), the “Hoechst 33342 nuclear staining score, MRC5” value came out at 0 and the “Hoechst 33342 nuclear staining score, PBLs” value was 0. Also, in test [1] (conc 1), the “Hoechst 33342 nuclear staining score, H460” value is 0; the “Hoechst 33342 nuclear staining score, HeLa” value is 0; the “Hoechst 33342 nuclear staining score, Jily” value is 0; the “Hoechst 33342 nuclear staining score, Jurkat” value stood at 0. In addition, in test [1] (conc 1), the “Hoechst 33342 nuclear staining score, MRC5” value is given as 0 and the “Hoechst 33342 nuclear staining score, PBLs” value stood at 0. For the same compound, in test [1] (conc 3), the “Hoechst 33342 nuclear staining score, H460” value is reported as 1 (weak activity comprising less than 50% of the cells); the “Hoechst 33342 nuclear staining score, HeLa” value is given as 0; the “Hoechst 33342 nuclear staining score, Jily” value is on record as 1 (weak activity comprising less than 50% of the cells); the “Hoechst 33342 nuclear staining score, Jurkat” value is reported as 2 (strong activity comprising more than 50% of the cells). For the same compound, in test [1] (conc 3), the “Hoechst 33342 nuclear staining score, MRC5” value was 0 and the “Hoechst 33342 nuclear staining score, PBLs” value is 0.

With `O=S(=O)(c1cccc(Cl)c1)n1cc(CNc2ccc(-n3ccnc3)cc2)cc1-c1ccc2c(c1)OCO2` [Example 74], in the test with HeLa, the IC50 is above 1000 nM. The IC50 in the test on Jurkat was above 1000 nM. The compound further returned an IC50 in the test with MRC5 above 1000 nM. In test [1] (conc 0.1), the “Hoechst 33342 nuclear staining score, H460” value was determined as 0; the “Hoechst 33342 nuclear staining score, HeLa” value worked out at 0; the “Hoechst 33342 nuclear staining score, Jily” value was 0; the “Hoechst 33342 nuclear staining score, Jurkat” value was 0. Moreover, in test [1] (conc 0.1), the “Hoechst 33342 nuclear staining score, MRC5” value was 0 and the “Hoechst 33342 nuclear staining score, PBLs” value is 0. In test [1] (conc 0.3), the “Hoechst 33342 nuclear staining score, H460” value is listed as 0; the “Hoechst 33342 nuclear staining score, HeLa” value amounted to 0; the “Hoechst 33342 nuclear staining score, Jily” value is given as 0; the “Hoechst 33342 nuclear staining score, Jurkat” value stood at 0. In test [1] (conc 0.3), the “Hoechst 33342 nuclear staining score, MRC5” value is recorded as 0 and the “Hoechst 33342 nuclear staining score, PBLs” value was 0. In addition, in test [1] (conc 1), the “Hoechst 33342 nuclear staining score, H460” value is listed as 0; the “Hoechst 33342 nuclear staining score, HeLa” value amounted to 0; the “Hoechst 33342 nuclear staining score, Jily” value came to 0; the “Hoechst 33342 nuclear staining score, Jurkat” value is 0. In test [1] (conc 1), the “Hoechst 33342 nuclear staining score, MRC5” value came to 0 and the “Hoechst 33342 nuclear staining score, PBLs” value is on record as 0. In addition, in test [1] (conc 3), the “Hoechst 33342 nuclear staining score, H460” value came to 0; the “Hoechst 33342 nuclear staining score, HeLa” value was 0; the “Hoechst 33342 nuclear staining score, Jily” value was 0; the “Hoechst 33342 nuclear staining score, Jurkat” value is 0. In test [1] (conc 3), the “Hoechst 33342 nuclear staining score, MRC5” value was found to be 0 and the “Hoechst 33342 nuclear staining score, PBLs” value is reported as 0.

Turning to `CCN(CC)CCCNCc1cc(-c2ccc3c(c2)OCO3)n(S(=O)(=O)c2ccc(C)cc2)c1` [Example 34], the IC50 in the test with HeLa, with Jurkat and in the test with MRC5 was above 1000 nM throughout. Moreover, the “Hoechst 33342 nuclear staining score, HeLa” value in test [1] (setting [6]), in test [1] (setting [2]), in test [1] (setting [3]) and in test [1] (setting [4]) was 0 each time. In addition, the “Hoechst 33342 nuclear staining score, Jurkat” value in test [1] (setting [6]), in test [1] (setting [2]), in test [1] (setting [3]) and in test [1] (setting [4]) was 0 throughout.

`COc1cc(-c2cc(CNc3ccc(S(N)(=O)=O)cc3)cn2S(=O)(=O)c2ccc(C)cc2)cc(OC)c1OC` [Example 70]: the values for the IC50 in the test on HeLa, in the test with Jurkat and in the test with MRC5 were above 1000 nM, below 1000 nM and above 1000 nM, respectively. Further, the “Hoechst 33342 nuclear staining score, H460” value in test [1] (conc 0.1) is recorded as 0; in test [1] (conc 0.3) it was 0; in test [1] (conc 1), 0; in test [1] (conc 3) it was 2 (strong activity comprising more than 50% of the cells). The “Hoechst 33342 nuclear staining score, HeLa” value in test [1] (conc 0.1), in test [1] (conc 0.3), in test [1] (conc 1) and in test [1] (conc 3) was 0 in each case. Moreover, the “Hoechst 33342 nuclear staining score, Jily” value is given as 0 in test [1] (conc 0.1), 0 in test [1] (conc 0.3), 0 in test [1] (conc 1) and 2 (strong activity comprising more than 50% of the cells) in test [1] (conc 3). Besides, the “Hoechst 33342 nuclear staining score, Jurkat” value in test [1] (conc 0.1) was 0; in test [1] (conc 0.3), 0; in test [1] (conc 1) it was 2 (strong activity comprising more than 50% of the cells); in test [1] (conc 3) it was 2 (strong activity comprising more than 50% of the cells). The “Hoechst 33342 nuclear staining score, MRC5” value in test [1] (conc 0.1) is 0; in test [1] (conc 0.3), 0; in test [1] (conc 1) it was 0; in test [1] (conc 3) it was 2 (strong activity comprising more than 50% of the cells). Further, the “Hoechst 33342 nuclear staining score, PBLs” value in test [1] (conc 0.1), in test [1] (conc 0.3), in test [1] (conc 1) and in test [1] (conc 3) was 0 in each case.

Usually IC50 stands for the point on the concentration scale where inhibition reaches its midpoint. A low value points to greater potency.
